Measured values as given in PMC6112376, “Comprehensive Analyses and Prioritization of Tox21 10K Chemicals Affecting Mitochondrial Function by in-Depth Mechanistic Studies” (Environmental Health Perspectives, 2018).
Where a name gives a salt, the structure may show the parent alone. Read-outs that look alike come from different tables or passages of the source.

Key:
HepG2 cells [1] = conditions: cited from earlier work
rat primary hepatocytes [2] = test system: rat primary hepatocytes
rat primary hepatocytes [3] = experiment: MMP assay in rat primary hepatocytes; conditions: for IC50: read-out: MMP assays IC50 (µM) Rat Hepatocytes
HepG2 cells [4] = conditions: for IC50: read-out: MMP assays IC50 (µM) HepG2
[5] = read-out: MMP assays IC50 (µM), qHTS-HepG2
[6] = read-out: MMP assays IC50 (µM) qHTS-HepG2
[7] = HepG2 cells, single number from one experiment

CCc1ccc(CCOc2ccc(CC3SC(=O)NC3=O)cc2)nc1 (centres unmarked) [Pioglitazone hydrochloride]
MMP assays IC50 (µM) qHTS-HepG2 (HepG2 cells [1]): inactive
MMP assays efficacy (%) qHTS-HepG2 (HepG2 cells [1]): inactive
MMP assays efficacy (%) Rat Hepatocytes (rat primary hepatocytes [2]): -69+30%
IC50 (rat primary hepatocytes [3]; Rattus norvegicus, Hepatocyte): 8.9 ± 9.2 µM
MMP assays IC50 (µM) HepG2 (HepG2 cells [4]): inactive
MMP assays efficacy (%) HepG2 (HepG2 cells [4]): inactive

O=C(NCc1cccnc1)Nc1ccc([N+](=O)[O-])cc1 [Pyrinuron]
MMP assays efficacy (%) qHTS-HepG2 (HepG2 cells [1]): -87±26%
IC50 (HepG2 cells [1]; [5]): 26.3 ± 1.71 µM
MMP assays efficacy (%) Rat Hepatocytes (rat primary hepatocytes [2]): -108±48%
IC50 (rat primary hepatocytes [3]): 25.8 ± 10.1 µM
MMP assays efficacy (%) HepG2 (HepG2 cells [4]): -81%
IC50 (HepG2 cells [4]): 28.2 µM

CNC(=O)c1cc(Oc2ccc(NC(=O)Nc3ccc(Cl)c(C(F)(F)F)c3)cc2)ccn1
IC50 (HepG2 cells [1]; [5]): 0.96 ± 0.09 µM
MMP assays efficacy (%) Rat Hepatocytes (rat primary hepatocytes [2]): -72±24%
IC50 (rat primary hepatocytes [3]): 2.25 ± 0.63 µM
MMP assays efficacy (%) HepG2 (HepG2 cells [4]): -92%
IC50 (HepG2 cells [4]): 1.23 µM

Oc1ccc(C(c2ccc(O)cc2)C(Cl)(Cl)Cl)cc1
MMP assays efficacy (%) qHTS-HepG2 (HepG2 cells [1]): -101±13%
IC50 (HepG2 cells [1]; [6]): 8.78 ± 1.43 µM
MMP assays efficacy (%) Rat Hepatocytes (rat primary hepatocytes [2]): -89±3%
IC50 (rat primary hepatocytes [3]): 33.2 ± 24.2 µM
MMP assays efficacy (%) HepG2 (HepG2 cells [4]): -103%
IC50 (HepG2 cells [4]): 10 µM

Nc1ccc(-c2ccc(N)c(N)c2)cc1N [3,3',4,4'-Tetraaminobiphenyl tetrahydrochloride]
MMP assays efficacy (%) qHTS-HepG2 (HepG2 cells [1]): -92±8%
IC50 (HepG2 cells [1]; [6]): 0.34 ± 0.26 µM
MMP assays efficacy (%) Rat Hepatocytes (rat primary hepatocytes [2]): -39±5%
IC50 (rat primary hepatocytes [3]): 9.46 ± 4.43 µM
MMP assays efficacy (%) HepG2 (HepG2 cells [4]): -82%
IC50 (HepG2 cells [4]): 2 µM

COc1cc(Cl)ccc1Oc1ccc(Cl)cc1Cl [Methyl triclosan]
MMP assays efficacy (%) qHTS-HepG2 (HepG2 cells [1]): -79±13%
IC50 (HepG2 cells [1]; [5]): 25.5 ± 1.67 µM
MMP assays efficacy (%) Rat Hepatocytes (rat primary hepatocytes [2]): -95±27%
IC50 (rat primary hepatocytes [3]): 45.9 ± 14.7 µM
MMP assays efficacy (%) HepG2 (HepG2 cells [4]): -95%
IC50 (HepG2 cells [4]): 39.8 µM

Nc1cccc(O)c1 [Compound 3-Aminophenol]
MMP assays IC50 (µM) qHTS-HepG2 (HepG2 cells [1]): inactive
MMP assays efficacy (%) qHTS-HepG2 (HepG2 cells [1]): inactive
MMP assays efficacy (%) Rat Hepatocytes (rat primary hepatocytes [2]): inactive
MMP assays IC50 (µM) Rat Hepatocytes (rat primary hepatocytes [3]): inactive
MMP assays IC50 (µM) HepG2 (HepG2 cells [4]): inactive
MMP assays efficacy (%) HepG2 (HepG2 cells [4]): inactive

O=C1OC(=O)C2C1C1(Cl)C(Cl)=C(Cl)C2(Cl)C1(Cl)Cl (centres unmarked) [Chlorendic anhydride]
MMP assays IC50 (µM) qHTS-HepG2 (HepG2 cells [1]): inactive
MMP assays efficacy (%) qHTS-HepG2 (HepG2 cells [1]): inactive
MMP assays efficacy (%) Rat Hepatocytes (rat primary hepatocytes [2]): inactive
MMP assays IC50 (µM) Rat Hepatocytes (rat primary hepatocytes [3]): inactive
MMP assays IC50 (µM) HepG2 (HepG2 cells [4]): inactive
MMP assays efficacy (%) HepG2 (HepG2 cells [4]): inactive

CCCC[P+](CCCC)(CCCC)CCCC.[Cl-] [Tetrabutylphosphonium chloride]
MMP assays IC50 (µM) qHTS-HepG2 (HepG2 cells [1]): inactive
MMP assays efficacy (%) qHTS-HepG2 (HepG2 cells [1]): inactive
MMP assays efficacy (%) Rat Hepatocytes (rat primary hepatocytes [2]): -108+36%
IC50 (rat primary hepatocytes [3]): 15.3 ± 5 µM
MMP assays IC50 (µM) HepG2 (HepG2 cells [4]): inactive
MMP assays efficacy (%) HepG2 (HepG2 cells [4]): inactive

Clc1ccc(Nc2nnc(Cc3ccncc3)c3ccccc23)cc1
MMP assays efficacy (%) qHTS-HepG2 (HepG2 cells [1]): -81±8%
IC50 (HepG2 cells [1]; [5]): 25.6 ± 4.41 µM
MMP assays efficacy (%) Rat Hepatocytes (rat primary hepatocytes [2]): -51±4%
IC50 (rat primary hepatocytes [3]): 20.7 ± 14.7 µM
MMP assays efficacy (%) HepG2 (HepG2 cells [4]): -34%
IC50 (HepG2 cells [4]): 30.8 µM

CC(=O)C1(C)CC2=C(CCCC2(C)C)CC1C (centres unmarked)
MMP assays efficacy (%) qHTS-HepG2 (HepG2 cells [1]): -50±18%
IC50 (HepG2 cells [1]; [6]): 27.3 ± 20.4 µM
MMP assays efficacy (%) Rat Hepatocytes (rat primary hepatocytes [2]): inactive
MMP assays IC50 (µM) Rat Hepatocytes (rat primary hepatocytes [3]; rat hepatocytes, mean ± SD of three experiments): inactive
MMP assays efficacy (%) HepG2 (HepG2 cells [4]; [7]): -43%
IC50 (HepG2 cells [4]; [7]): 35.5 µM

Cl.Nc1ccc(Nc2ccccc2)cc1
MMP assays efficacy (%) qHTS-HepG2 (HepG2 cells [1]): -69±28%
IC50 (HepG2 cells [1]; [5]): 5.82 ± 6.96 µM
MMP assays efficacy (%) Rat Hepatocytes (rat primary hepatocytes [2]): inactive
MMP assays IC50 (µM) Rat Hepatocytes (rat primary hepatocytes [3]): inactive
MMP assays efficacy (%) HepG2 (HepG2 cells [4]): -54%
IC50 (HepG2 cells [4]): 28.2 µM

CC#C[C@]1(O)CC[C@H]2[C@@H]3CCC4=CC(=O)CCC4=C3[C@@H](c3ccc(N(C)C)cc3)C[C@@]21C
MMP assays efficacy (%) qHTS-HepG2 (HepG2 cells [1]): -97±21%
IC50 (HepG2 cells [1]; [5]): 16.1 ± 32.5 µM
MMP assays efficacy (%) Rat Hepatocytes (rat primary hepatocytes [2]): inactive
MMP assays IC50 (µM) Rat Hepatocytes (rat primary hepatocytes [3]): inactive
MMP assays IC50 (µM) HepG2 (HepG2 cells [4]): inactive
MMP assays efficacy (%) HepG2 (HepG2 cells [4]): inactive

Oc1cc(Cl)c(Cl)cc1Cl.[Na] [2,4,5-Trichlorophenol sodium salt]
MMP assays efficacy (%) qHTS-HepG2 (HepG2 cells [1]): -99±23%
IC50 (HepG2 cells [1]; [6]): 5.05 ± 2.09 µM
MMP assays efficacy (%) Rat Hepatocytes (rat primary hepatocytes [2]): -130±56%
IC50 (rat primary hepatocytes [3]): 27.3 ± 25.2 µM
MMP assays efficacy (%) HepG2 (HepG2 cells [4]): -98%
IC50 (HepG2 cells [4]): 10 µM

Cl.Cl.Nc1ccc(-c2ccc(N)cc2)cc1 [Benzidine dihydrochloride]
MMP assays IC50 (µM) qHTS-HepG2 (HepG2 cells [1]): inactive
MMP assays efficacy (%) qHTS-HepG2 (HepG2 cells [1]): inactive
MMP assays efficacy (%) Rat Hepatocytes (rat primary hepatocytes [2]): inactive
MMP assays IC50 (µM) Rat Hepatocytes (rat primary hepatocytes [3]): inactive
MMP assays efficacy (%) HepG2 (HepG2 cells [4]): -67%
IC50 (HepG2 cells [4]): 17.7 µM

CN(C)c1ccc(C(=C2C=CC(=[N+](C)C)C=C2)c2ccccc2)cc1.CN(C)c1ccc(C(=C2C=CC(=[N+](C)C)C=C2)c2ccccc2)cc1.O=C(O)C(=O)O.O=C([O-])C(=O)O.O=C([O-])C(=O)O [Malachite green oxalate]
MMP assays efficacy (%) qHTS-HepG2 (HepG2 cells [1]): -100±20%
IC50 (HepG2 cells [1]; [5]): 2.1 ± 1.87 µM
MMP assays efficacy (%) Rat Hepatocytes (rat primary hepatocytes [2]): -44±26%
IC50 (rat primary hepatocytes [3]): 8.67 ± 12.3 µM
MMP assays efficacy (%) HepG2 (HepG2 cells [4]): -65%
IC50 (HepG2 cells [4]): 27.5 µM

CN(N=O)c1ccc([N+](=O)[O-])cc1 [N-Nitroso-N-methyl-4-nitroaniline]
MMP assays IC50 (µM) qHTS-HepG2 (HepG2 cells [1]): inactive
MMP assays efficacy (%) qHTS-HepG2 (HepG2 cells [1]): inactive
MMP assays efficacy (%) Rat Hepatocytes (rat primary hepatocytes [2]): -69+6%
IC50 (rat primary hepatocytes [3]): 20 ± 16.6 µM
MMP assays IC50 (µM) HepG2 (HepG2 cells [4]): inactive
MMP assays efficacy (%) HepG2 (HepG2 cells [4]): inactive

CC(=O)[O][Sn]([c]1ccccc1)([c]1ccccc1)[c]1ccccc1 [Triphenyltin acetate]
MMP assays efficacy (%) qHTS-HepG2 (HepG2 cells [1]): -99±5%
IC50 (HepG2 cells [1]; [5]): 0.12 ± 0.04 µM
MMP assays efficacy (%) Rat Hepatocytes (rat primary hepatocytes [2]): -74±32%
IC50 (rat primary hepatocytes [3]): 24.1 ± 10.1 µM
MMP assays efficacy (%) HepG2 (HepG2 cells [4]): -94%
IC50 (HepG2 cells [4]): 1.12 µM

CC1(C)[C@@H](O)CC[C@]2(C)[C@H]3C(=O)C=C4[C@@H]5C[C@@](C)(C(=O)O)CC[C@]5(C)CC[C@@]4(C)[C@]3(C)CC[C@@H]12 [Glycyrrhetinic acid]
MMP assays efficacy (%) qHTS-HepG2 (HepG2 cells [1]): -88±53%
IC50 (HepG2 cells [1]; [5]): 40.1 ± 9.34 µM
MMP assays efficacy (%) Rat Hepatocytes (rat primary hepatocytes [2]): -44±24%
IC50 (rat primary hepatocytes [3]; Rattus norvegicus, Hepatocyte): 15.6 ± 2.52 µM
MMP assays IC50 (µM) HepG2 (HepG2 cells [4]): inactive
MMP assays efficacy (%) HepG2 (HepG2 cells [4]): inactive

Oc1ccc2ccccc2c1N=Nc1ccccc1 [C.I. Solvent yellow 14]
MMP assays efficacy (%) qHTS-HepG2 (HepG2 cells [1]): -69±8%
IC50 (HepG2 cells [1]; [6]): 5.84 ± 2.06 µM
MMP assays efficacy (%) Rat Hepatocytes (rat primary hepatocytes [2]): -86±4%
IC50 (rat primary hepatocytes [3]): 17 ± 10.6 µM
MMP assays efficacy (%) HepG2 (HepG2 cells [4]): -110%
IC50 (HepG2 cells [4]): 15.8 µM

CSc1nc(NC2CC2)nc(NC(C)(C)C)n1 [Cybutryne]
MMP assays efficacy (%) qHTS-HepG2 (HepG2 cells [1]): -81±18%
IC50 (HepG2 cells [1]; [6]): 20.9 ± 13.9 µM
MMP assays efficacy (%) Rat Hepatocytes (rat primary hepatocytes [2]): -69±43%
IC50 (rat primary hepatocytes [3]): 14.3 ± 16 µM
MMP assays IC50 (µM) HepG2 (HepG2 cells [4]): inactive
MMP assays efficacy (%) HepG2 (HepG2 cells [4]): inactive

Cl.Nc1c2ccccc2nc2ccccc12.O
MMP assays efficacy (%) qHTS-HepG2 (HepG2 cells [1]): -82±4%
IC50 (HepG2 cells [1]; [6]): 13.8 ± 1.75 µM
MMP assays efficacy (%) Rat Hepatocytes (rat primary hepatocytes [2]): -56±22%
IC50 (rat primary hepatocytes [3]): 8.51 ± 5.35 µM
MMP assays efficacy (%) HepG2 (HepG2 cells [4]): -115%
IC50 (HepG2 cells [4]): 21.8 µM

O=[N+]([O-])c1ccc(F)c([N+](=O)[O-])c1 [1-Fluoro-2,4-dinitrobenzene]
MMP assays efficacy (%) qHTS-HepG2 (HepG2 cells [1]): -104±8%
IC50 (HepG2 cells [1]; [6]): 3.71 ± 0.6 µM
MMP assays efficacy (%) Rat Hepatocytes (rat primary hepatocytes [2]): -68±38%
IC50 (rat primary hepatocytes [3]): 8.3 ± 5.67 µM
MMP assays efficacy (%) HepG2 (HepG2 cells [4]): -103%
IC50 (HepG2 cells [4]): 5.48 µM

Cl.Cl.NNCc1ccccc1 [Benzylhydrazine dihydrochloride]
MMP assays efficacy (%) qHTS-HepG2 (HepG2 cells [1]): -106±12%
IC50 (HepG2 cells [1]; [6]): 27.8 ± 3.21 µM
MMP assays efficacy (%) Rat Hepatocytes (rat primary hepatocytes [2]): inactive
MMP assays IC50 (µM) Rat Hepatocytes (rat primary hepatocytes [3]): inactive
MMP assays efficacy (%) HepG2 (HepG2 cells [4]): -88%
IC50 (HepG2 cells [4]): 19.9 µM

CCC1(c2ccccc2)C(=O)NC(=O)N(C(=O)c2ccccc2)C1=O (centres unmarked) [Benzobarbital]
MMP assays efficacy (%) qHTS-HepG2 (HepG2 cells [1]): -82±27%
IC50 (HepG2 cells [1]; [6]): 24.1 ± 5.12 µM
MMP assays efficacy (%) Rat Hepatocytes (rat primary hepatocytes [2]): inactive
MMP assays IC50 (µM) Rat Hepatocytes (rat primary hepatocytes [3]): inactive
MMP assays IC50 (µM) HepG2 (HepG2 cells [4]): inactive
MMP assays efficacy (%) HepG2 (HepG2 cells [4]): inactive
